Test results taken from patent US11180504B2 (ORCHID PHARMA LTD., priority 2016, dated 2021).
Values after ≈ are worked out from the molar mass of the structure shown.

How the values were obtained:
[1] = system: methicillin-sensitive Staphylococcus aureus; assay: MIC by broth micro-dilution (CLSI), methicillin-sensitive S. aureus; type: cell-based; conditions: Staphylococcus aureus, ATCC 29213 / MSSA, MSSA S. aureus ATCC29213; read-out: MIC
[2] = system: carbapenemase producing K. pneumoniae; assay: MIC by broth micro-dilution (CLSI), carbapenemase producing K. pneumoniae; type: cell-based, Klebsiella pneumoniae; conditions: Klebsiella pneumoniae, ATCCBAA1705, KPC-2 K. pneumoniae ATCC BAA-1705; read-out: MIC
[3] = system: carbapenem sensitive Escherichia coli; assay: MIC by broth micro-dilution (CLSI), carbapenem sensitive E. coli; type: cell-based; conditions: Escherichia coli, ATCC25922, ESBL −ve E. coli ATCC25922; read-out: MIC
[4] = system: carbapenem sensitive Pseudomonas aeruginosa; assay: MIC by broth micro-dilution (CLSI), carbapenem sensitive P. aeruginosa; type: cell-based; conditions: Pseudomonas aeruginosa, ATCC27853, Meropenem susceptible P. aeruginosa ATCC27853; read-out: MIC

Row | SMILES | MIC [1] [µg/mL] | MIC [2] [µg/mL] | MIC [3] [µg/mL] | MIC [4] [µg/mL]
1 | C[C@@H](NC(=O)Cn1cnnn1)[C@H]1C(=O)N2C(C(=O)O)=C(S[C@@H]3CN[C@H](CC(=O)N4CCC(N)C4)C3)[C@H](C)[C@H]12 (stereo in doubt) [Example 536, (4R,5S,6R)-6-((R)-1-(2-(1H-tetrazol-1-yl)acetamido)-ethyl)-3-((3S,5R)-5-(2-((R)-3-aminopyrrolidin-1-yl)-2-oxoethyl)pyrrolidin-3-ylthio)-4-methyl-7-oxo-1-azabicyclo[3.2.0]hept-2-ene-2-carboxylic acid] | 2 (≈ 3.65 µM) | 2 (≈ 3.65 µM) | 0.25 (≈ 0.457 µM) | 4 (≈ 7.3 µM)
2 | C[C@@H](NC(=O)C(F)F)[C@H]1C(=O)N2C(C(=O)O)=C(S[C@@H]3CN[C@H](C(=O)N4CCc5nc(N)sc5C4)C3)[C@H](C)[C@H]12 [Example 235] | 2 (≈ 3.5 µM) | 16 (≈ 28 µM) | 2 (≈ 3.5 µM) | > 128
3 | C[C@@H](NC(=O)C(F)F)[C@H]1C(=O)N2C(C(=O)O)=C(S[C@@H]3CN[C@H](CNS(=O)(=O)N4CC[C@@H](N)C4)C3)[C@H](C)[C@H]12 [Example 236] | 2 (≈ 3.53 µM) | 4 (≈ 7.06 µM) | 2 (≈ 3.53 µM) | 128 (≈ 226 µM)
4 | C[C@@H](NC(=O)C(F)F)[C@H]1C(=O)N2C(C(=O)O)=C(S[C@@H]3CN[C@H](CNS(=O)(=O)N4CC[C@H](N)C4)C3)[C@H](C)[C@H]12 [Example 237] | 1 (≈ 1.76 µM) | 4 (≈ 7.06 µM) | 2 (≈ 3.53 µM) | 128 (≈ 226 µM)
5 | C[C@@H](NC(=O)CNC(=N)N)[C@H]1C(=O)N2C(C(=O)O)=C(S[C@@H]3CN[C@H](C(=O)N(C)C)C3)[C@H](C)[C@H]12 [Example 241] | 16 (≈ 33.2 µM) | 2 (≈ 4.15 µM) | 2 (≈ 4.15 µM) | 32 (≈ 66.4 µM)
6 | C[C@@H](NC(=O)CNC(=N)N)[C@H]1C(=O)N2C(C(=O)O)=C(S[C@@H]3CN[C@H](C(=O)N4CC[C@@H](N)C4)C3)[C@H](C)[C@H]12 [Example 242] | 16 (≈ 30.6 µM) | 2 (≈ 3.83 µM) | 2 (≈ 3.83 µM) | 8 (≈ 15.3 µM)
7 | C[C@@H](NC(=O)C(F)F)[C@H]1C(=O)N2C(C(=O)O)=C(S[C@@H]3CN[C@H](C(=O)N(C)Cc4cc(=O)c(O)cn4C)C3)[C@H](C)[C@H]12 [Example 243] | 32 (≈ 54.8 µM) | 32 (≈ 54.8 µM) | 16 (≈ 27.4 µM) | > 128
8 | C[C@@H](NC(=O)C(F)F)[C@H]1C(=O)N2C(C(=O)O)=C(S[C@@H]3CN[C@H](CN)C3)[C@H](C)[C@H]12 [Example 244] | 1 (≈ 2.39 µM) | 4 (≈ 9.56 µM) | 1 (≈ 2.39 µM) | 64 (≈ 153 µM)
9 | C[C@@H](NC(=O)CN)[C@H]1C(=O)N2C(C(=O)O)=C(S[C@@H]3CN[C@H](C(=O)N4CC[C@@H](N)C4)C3)[C@H](C)[C@H]12 [Example 245] | 8 (≈ 16.6 µM) | 4 (≈ 8.32 µM) | 2 (≈ 4.16 µM) | 4 (≈ 8.32 µM)
10 | C[C@@H](NC(=O)C(F)F)[C@H]1C(=O)N2C(C(=O)O)=C(S[C@@H]3CN[C@H](C(=O)N4CC[C@H](NCc5cc(=O)c(O)cn5C)C4)C3)[C@H](C)[C@H]12 [Example 246] | 32 (≈ 50.1 µM) | 128 (≈ 200 µM) | 8 (≈ 12.5 µM) | > 128
11 | C[C@@H](NC(=O)C(F)F)[C@H]1C(=O)N2C(C(=O)O)=C(S[C@@H]3CN[C@H](C(=O)N4C[C@H](NC(=N)N)[C@@H](O)C4)C3)[C@H](C)[C@H]12 [Example 247] | 32 (≈ 57.2 µM) | 32 (≈ 57.2 µM) | 4 (≈ 7.15 µM) | > 128
12 | C[C@@H](NC(=O)C(F)F)[C@H]1C(=O)N2C(C(=O)O)=C(S[C@@H]3CN[C@@H](C(=O)N(C)C)C3)[C@H](C)[C@H]12 [Example 248] | 1 (≈ 2.17 µM) | 4 (≈ 8.69 µM) | 1 (≈ 2.17 µM) | > 128
13 | C[C@@H](NC(=O)C(F)F)[C@H]1C(=O)N2C(C(=O)O)=C(S[C@@H]3CN[C@H](C(=O)C4C[C@@H](N)C[C@H]4CF)C3)[C@H](C)[C@H]12 (stereo partly shown) [Example 251] | 0.5 (≈ 0.939 µM) | 0.5 (≈ 0.939 µM) | 0.25 (≈ 0.469 µM) | 32 (≈ 60.1 µM)
